These results are taken from patent US20220127297A1, “Novel Antibacterial 3"-Derivatives Of 4,6-Disubstituted 2,5-Dideoxystreptamine Aminoglycoside Antibiotics” (AGILeBiotics B.V., priority 2018, published 2022).

≈ marks a conversion by molar mass, not a printed value.

Assay [1] concerns E. coli ATCC25922 strain. Put plainly: MIC 50, broth micro-dilution, wild-type Escherichia coli. Type of assay: cell-based. The following applies: Escherichia coli, ATCC25922, 18 h, MH2, 18 h. The source says: (§1) 3.1 Against E. coli Strains
(§2) Tested reference compounds. Amikacin sulfate (Cat. No. 01693, Chem-Impex), Gentamicin sulfate (Cat. No. G4918, Sigma Aldrich).
(§3) Microbial strains. E. coli ATCC 25922, E. coli ATCC 25922/pET-9b(+), E. coli ATCC 25922/pAT21-1, E. coli ATCC 25922/pBluescript::AAC(6′)-Ie/APH(2″)-Ia, E. coli ATCC 25922/pBlue_lpp_aacC3_rrnC, E. coli ATCC 25922/pSET152.
(§4) Culture media and equipment. BBL™ Mueller Hinton Broth 2 (Lot. BCBW1143, Cat. No. 70192, Sigma); Kanamycin A (Cat. No. A1493, AppliChem); 96-well deep well plate, 1 mL (Cat. No. 0030506.200, Eppendorf); Plate lids (Cat. No. 0030131.525, Eppendorf); 96-well plate, F-bottom (Cat. No. 781602, Brand; Incubator, Infors Multitron Pro); Laminar flow (Heraeus KS12); UV/VIS meter (Eppendorf BioPhotometer Plus); Platereader (Tecan Sunrise).
(§5) Compound preparation. Compounds were prepared in MH2 media at a concentration of 5 mM and stored at 4° C. For testing, solutions of 128 μM were prepared in MH2. Out of these working solutions, 400 μL was transferred to wells in the first column of 96-well deep well plates. Each compound was transferred in triplicate. Plates were previously filled with 200 μL of MH2 media in all wells except for the wells in the first column. After compound and antibiotic addition, the compounds were serial two-fold diluted by transferring 200 μL from the first to the second column, then from the second to the third column and so on. Finally, 200 μL was removed from the last column.
(§6) Inoculum preparation. Microorganisms used were all revived from 20% glycerol (40% v/v glycerol in water was diluted with MH2) storage at −80° C. by inoculating them in 5 mL MH2. inoculums of E. coli containing a plasmid were selected for by adding 50 μg/mL KanaA. The Inoculums were grown to an optical density (measured by UV/Vis spectroscopy) of 0.6-0.8 at 600 nm. Out of these suspensions, actual inoculums were prepared by diluting them to an optical density (OD) of 0.1 in MH2 media. From these inoculums, 200 μL was transferred to each well, resulting in a final compound concentration range of 64 μM-31.3 nM. All plates were incubated at 900 rpm and 70% rH for 18 h at 37° C.
MIC determination. After 18 h of growth, 200 μL was transferred to a 96-well F-bottom plate. The optical density was determined by a plate reader at 600 nm, with 10 s shaking before reading. Triplicate measurements were averaged, and a growth curve was plotted in Microsoft Excel. The first column in which the growth reached half the value of maximum growth was determined as the MIC50 value for that particular compound.
MIC50. The MIC50 of a compound was assigned at which the bacterial growth reached half the value of maximum growth.
Background: Broth dilution looks for growth in wells or tubes with falling amounts of substance.

The subject of assay [2] is E. coli (APH(3′)Ia). In words: MIC 50, broth micro-dilution, E. coli expressing APH(3′)Ia. Format: cell-based, Escherichia coli. The following applies: Escherichia coli, ATCC25922, ATCC25922 harboring plasmid encoding APH(3′)Ia. Here is the method:
(§7) Plasmid transformation. Approximately 500 ng of the pET-9b(+) (Cat. No. 69432-3, Merck), pAT21-1 (provided by Prof. Dr. Patrice Courvalin, M.D., Pasteur Institute, France; prepared according to Trieu-Cuot et. al, Mol. Gen. Genet. 198(2), 348 (1985)), pBluescript::AAC(6′)-Ie/APH(2″)-Ia (provided by Prof. Dr. Sergei Vakulenko, M.D., University of Notre Dame, Ind., USA; prepared according to S. B. Vakulenko et. al., J. Biol. Chem. 287 (52), 43262 (2012)), pBlue_lpp_aacC3_rrnC and pSET152 (Cat. No. PVT3395, Life Science Market; prepared according to Bierman et al., Gene 116 (1), 43 (1992)) plasmids, encoding APH(3′)-Ia (SEQ ID NO:2), APH(3′)-IIIa (SEQ ID NO:3), AAC(6′)Ie-APH(2″)-Ia (SEQ ID NO:4), AAC(3)-III (SEQ ID NO:1), and AAC(3)-IV (SEQ ID NO:5) respectively, were individually incubated in a vial of competent cells for 15 min on ice. The cells were subsequently heated to 42° C. for 90 s, and cooled on ice for 1 min. After addition of 900 μL LB, the cells were incubated for 1 h at 37° C. and 200 rpm. Cells were plated on LB-agar supplemented with 50 μg/mL KanaA and incubated for 18 h at 37° C. The next day, a single colony was inoculated in 5 mL LB supplemented with 50 μg/mL and grown for 18 h at 37° C. and 200 rpm. A 200 μL sample of each culture was diluted with 200 μL of 40% v/v glycerol in water, and stored at −80° C. The plasmid was purified from the remaining culture using the Plasmid Miniprep kit. Plasmid DNA was investigated by Eurofins Genomics (Germany) to confirm the identity of the aminoglycoside resistance genes.
as §1, §2, §3, §4, §5, §6
(§8) MIC determination. After 18 h of growth, 200 μL was transferred to a 96-well F-bottom plate. The optical density was determined by a plate reader at 600 nm, with 10 s shaking before reading. Triplicate measurements were averaged, and a growth curve was plotted in Microsoft Excel. […]

The test system of assay [3] is E. coli (AAC(3)III). Put plainly: MIC 50, broth micro-dilution, E. coli expressing AAC(3)III. Type of assay: cell-based, Escherichia coli. The following applies: Escherichia coli, ATCC25922, ATCC25922 harboring plasmid encoding AAC(3)III.
From the text: Cloning resistant enzymes. An Escherichia coli codon optimized gene encoding AAC(3)-III (GenBank acc.nr. X55652.1; SEQ ID NO:1), including a promoter and terminator sequence, was synthesized by Integrated DNA Technologies, Belgium. The synthesized gene and pBluescript II KS(+) plasmid were digested using the restriction enzymes SacI and SalI, and purified from a 1% TBE-agarose gel using the illustra Gel Band purification kit. The purified linear plasmid and T4 DNA ligase were used to ligate aac(3)-III under control of the constitutive lipoprotein Ipp promoter and ribosomal RNA rrnC terminator, resulting in pBlue_Ipp_aacC3_rrnC.
as §7, §1, §2, §3, §4, §5
Inoculum preparation. Microorganisms used were all revived from 20% glycerol (40% v/v glycerol in water was diluted with MH2) storage at −80° C. by inoculating them in 5 mL MH2. inoculums of E. coli containing a plasmid were selected for by adding 50 μg/mL KanaA.

The subject of assay [4] is E. coli (APH(3′)IIIa). Put plainly: MIC 50, broth micro-dilution, E. coli expressing APH(3′)IIIa. Type of assay: cell-based, Escherichia coli. The following applies: Escherichia coli, ATCC25922, ATCC25922 harboring plasmid encoding APH(3′)IIIa. Here is the method: as §7, §1, §2, §3, §4, §5, §6, §8
For assay [5], the system named is E. coli (AAC(6′)Ie-APH(2″)Ia). In words: MIC 50, broth micro-dilution, E. coli expressing AAC(6′)Ie-APH(2″)Ia. Type of assay: cell-based, Escherichia coli. The following applies: Escherichia coli, ATCC25922, ATCC25922 harboring plasmid encoding AAC(6′)Ie-APH(2″)Ia. Here is the method: as §7, §1, §2, §3, §4, §5, §6, §8
The subject of assay [6] is E. coli (AAC(3)IV). Put plainly: MIC 50, broth micro-dilution, E. coli expressing AAC(3)IV. Format: cell-based, Escherichia coli. Particulars: Escherichia coli, ATCC25922, ATCC25922 harboring plasmid encoding AAC(3)IV. Here is the method:
as §7, §1, §2, §3, §4, §5, §6, §8

As for `N=C(NC[C@H]1CCCNC1)NC1[C@@H](O)C(OC2[C@@H](F)[C@H](O[C@H]3OC(CN)[C@@H](O)CC3N)C(N)C[C@H]2NC(=O)[C@@H](O)CCN)O[C@H](CO)[C@H]1O` (stereo partly drawn) [ABX5044, Tobra-AHB-F-Gua (S) piperidin-3-yl methyl], the MIC50 (as a rule, the lowest concentration that inhibits either 50% of growth or 50% of the strains tested, depending on the study) in assay [1] was 0.5 µM (≈ 0.355 µg/mL); in assay [2], 0.5 to 1 µM (≈ 0.355 to 0.71 µg/mL); in assay [3], 0.5 µM (≈ 0.355 µg/mL); in assay [4] it was 0.5 µM (≈ 0.355 µg/mL); in assay [5], 0.5 µM (≈ 0.355 µg/mL); in assay [6], 2 µM (≈ 1.42 µg/mL).
